Experiments:
mTORC1 [1] = test: Amino acid starvation and re-stimulation of HEK-293T cells, phospho-S6K western blot; type: cell-based, human; conditions: whole-cell assays of mTORC1 activity; partly called preliminary evidence
Text: The work described herein determined which amino acids are most critical for signaling to the mTORC1 pathway in HEK-293T cells, the workhorse cell culture system to which we owe much of our understanding about amino acid sensing. The basic experimental paradigm consists of a 50-minute total amino acid starvation followed by a 10-minute stimulation with a customizable set of amino acids. […] The work described herein determined that that there may be one or more missing amino acids that, when added alongside Leu and Arg, could fully activate mTORC1.
To determine the identities of these missing amino acids, the inventors first stimulated cells with the set of essential or the set of nonessential amino acids. […] The inventors then tested triplet amino acid combinations comprised of Leu, Arg, and one additional essential amino acid. […] Cocktails of EAAs that omitted one amino acid at a time were prepared. […] Thus the necessity and sufficiency experiments yielded complementary results, converging on Leu, Arg, and Lys as key signals for mTORC1 activation in 293T cells.
The inventors have explored why this particular combination of amino acids has such synergistic effects on the mTORC1 pathway in 293T cells. Given that both Arg and Lys contain basic side chains, the inventors first wondered if this shared chemical property underlay their abilities to activate mTORC1.
Furthermore, the inventors continue to characterize structure-activity relationships using LRK derivatives with modifications on the carboxy terminus, the amino terminus, and/or the side chain in whole-cell and in vitro lysosomal assays of mTORC1 activity. The inventors first tested amino acid carboxyesters, whose enhanced ability to permeate membranes render them good candidates for lysosomal loading. Once inside the lysosome, amino acid esters are thought to undergo hydrolysis to yield their native counterparts. […] Knowledge of the chemical space around LRK can be used to develop probes for interrogating the LRK/protein(s) interaction interface for isolating and/or enriching the amino acid sensor(s) feeding into mTORC1.

mTORC1 [2] = test: mTORC1 activity in MEFs (immunoblotting); type: cell-based, mouse; conditions: AMPK activator treatment
Method: FIG. 16A is a bar graph illustrating the decrease in plasma amino acids in all 1 h fasted neonates. […] FIG. 16C is a western blot depicting the time course of mTORC1 and AMPK activity in AMPK-wt, AMPK-DKO, RagA^+/+ and RagA^GTP/GTP MEFs deprived of glucose for 0.5, 2 and 4 h. FIG. 16D is a western blot of whole cell lysates immunoblotted for the indicated proteins, showing control HEK-293T cells or those expressing RagB^GTP were deprived of growth factors, glucose, amino acids, or glucose and amino acids for 1 h and re-stimulated with glucose and/or amino acids for 10 min. FIG. 16E is a graph illustrating the quantification of the western blots on FIG. 12B and FIG. 16D. FIG. 16F is a western blot showing the effect of amino acid esters on mTORC1 activity in wt MEFs. FIG. 16G is a bar graph showing the quantification of amino acids in RagA^+/+ and RagA^GTP/GTP MEFs deprived of glucose (relative to un-starved controls). […]
Maintenance of mTORC1 activity requires the simultaneous presence of growth factors, amino acids, and glucose^1. […] In addition, AMPK activity, as monitored by acetyl-CoA carboxylase (ACC) phosphorylation, was induced to similar levels in glucose-deprived RagA^+/+ and RagA^GTP/GTP cells (FIG. 12B and FIG. 16C), but absent in AMPK-null cells (FIG. 12A).

RagA^GTP/GTP neonates = test: Survival, glucose homeostasis and autophagy of fasted RagA^GTP/GTP neonates; type: in vivo, mouse
Method: NS, not significant. […] FIG. 10G is a series of bar graphs illustrating the quantification of neonatal plasma amounts of branched-chain (BCAA) and essential amino acids at birth (left), after 10 h fasting (middle) and after 10 h fasting with rapamycin treatment (right) (n for +/+, G/+ and G/G, respectively: n=4, 5 and 4 for 0 h; n=4, 4 and 3 for 10 h; n=2, 5 and 3 for rapamycin; mean±s.d.). Values are expressed relative to RagA^+/+ amounts at each time point.

[3] = cited from earlier work
[4] = Free amino acid levels in gastrocnemius muscle by LC-MS in fasted mice; type: in vivo, mouse; conditions: upon IP injection of citrulline containing formulations
mTORC1 [5] = test: Phosphorylated S6 in gastrocnemius muscle and liver of fasted rats after oral gavage or bolus IV injection; type: in vivo; conditions: summary of the rat studies
Method: FIGS. 23A, 23B, 23C and 23D depict the effect of administering various combinations of amino acids on levels of phosphorylated ribosomal protein S6 (pS6) in gastrocnemius muscle and liver. FIGS. 23A and 23B are bar graphs showing the fold increase in pS6/actin protein ratios in fasted rat gastrocnemius muscle (FIG. 23A) or liver (FIG. 23B) 30 and 60 minutes after administering amino acids via oral gavage. FIGS. 23C and 23D are bar graphs showing the fold increase in pS6/actin protein ratios in fasted rat gastrocnemius muscle (FIG. 23C) or liver (FIG. 23D) 30 and 60 minutes after administering amino acids via intravenous bolus injection.
Rats (n=3), fasted for 24 hours, were administered LRK or LCK via oral gavage or bolus IV injection and gastrocnemius muscle and liver was isolated 30 and 60 minutes later. Gastrocnemius muscle and liver was analyzed by SDS-PAGE followed by western blotting for levels of phosphorylated S6—a marker of mTORC1 activity.

[6] = tested on: mice, hindlimb immobilization model of muscle atrophy; test: Hindlimb immobilization/recovery model of muscle atrophy, gastrocnemius mass; type: in vivo, mouse; conditions: left hindlimb immobilized 5 days, 5 days recovery; IP twice daily; rapamycin daily where indicated
Method: Mice were subjected to immobilization of the left hind limb for 5 days followed by a 5-day recovery period. Each mouse was injected intraperitoneally twice daily at 9 am and 6 pm during the whole immobilization/recovery periods with the indicated amino acid esters or vehicle control. Rapamycin or vehicle control was injected daily where indicated. Following completion of the study both the right and left gastrocnemius were removed and mass of each muscle was recorded. Percent recovery was calculated by comparing the mass of the left immobilized gastrocnemius to that of the contralateral control leg. Standard error is shown, n=5-6 per treatment.
The protocol of hindlimb immobilization involves casting of the rear left leg, resulting in atrophy of the gastrocnemius and soleus muscles. The rear right leg remains free, and serves as an internal control for gastrocnemius and soleus muscle mass.
The inventors performed an experiment where left hindlimbs were immobilized for 5 days, casts were removed, and a recovery period of 5 days continued until the study endpoint. Animals were injected with PBS as control, L ethyl ester, or LR ethyl esters twice daily. As in the previous experiment, the 1× doses of amino acids and their esters were calculated as 20% of the amount that an adult mouse eats in a 24 h period under ad libitum conditions. […]

mTORC1 [7] = test: Muscle mTORC1 activation in immobilized and fasted mice after IP injection (phosphorylated S6, 4EBP1); type: in vivo, mouse; conditions: 18-hour fast, 30 minutes
Method: Mice were subjected to a model of hindlimb immobilization for 5 days in which the left hindlimb was casted as described in Example 2 in order to induce atrophy. Food and water were provided ad libitum. The night before day 6, food was withdrawn and the mice were subjected to an 18-hour overnight fast. […] Right (R; control) and left (L*; immobilized) gastrocnemius muscles were collected 30 minutes after treatment, snap frozen in liquid nitrogen, and processed for western blotting analysis with appropriate antibodies as previously described.

muscle protein synthesis = test: Muscle protein synthetic rate in starved rats (flooding dose of radiolabeled phenylalanine); type: in vivo, rat; conditions: oral, 25% dose, 45 minutes, versus fasted vehicle control
Method: FIGS. 24A and 24B depict the effect of various amino acid combinations or a Leu-Arg-Lys tripeptide on phosphorylation of an mTORC1 substrate and the rate of muscle protein synthesis in starved rats.
To address this question, starved rats (n=8) were given oral doses of leucine, LR, LR(k), LC(k) and the LRK peptide and muscle protein synthetic rates were measured by administering a flooding dose of radiolabeled phenylalanine 10 minutes before sacrifice and quantifying uptake of radiolabeled phenylalanine.
Starved rats were dosed with amino acids benchmarked to either 5% of 25% of their daily intake of leucine. Rats were sacrificed 45 minutes after oral gavage and tissues and plasma was collected for mTORC1 signaling assessment, quantification of plasma leucine levels and measurement of protein synthetic rates.

mTORC1 [8] = test: Assaying L, R, K analogs for mTORC1 modulation in whole cells (pS6K); type: cell-based, human
Method: Generally, to test analogs of L, R, and K, whole cells (e.g., HEK293) can be starved of all amino acids (using RPMI—aa) for a period of time (e.g., about 50 min), and then stimulated with a combination of L, R, or K and/or an analog of L, R, or K, and mTORC1 activity can be measured by phosphorylation of an mTORC1 substrate (e.g., S6K).
Below are exemplary conditions which can be used to assay analogs of leucine (e.g., photoleucine (photoLeu)) for their ability to activate or suppress mTORC1 activity.
4) RK+0.1× photoLeu 5) RK+0.5× photoLeu 6) RK+1× photoLeu 7) RK+10× photoLeu
9) LRK+0.1× photoLeu 10) LRK+0.5× photoLeu 11) LRK+1× photoLeu 12) LRK+10× photoLeu
Conditions 3-7 above test whether or not a leucine analog (e.g., photoLeu) can substitute for native Leu. […] Those skilled in the art will appreciate that conditions 3-7 above can be modified to assay other analogs, for example, by replacing RK with LK to assay R analogs or by replacing RK with LR to assay K analogs.
Conditions 8-12 above test whether or not a leucine analog (e.g., photoLeu) can compete against native Leu.
The concentration range of analogs used in the protocol set forth above was from about 0.1× to 10× (relative to RPMI), however, other concentrations may be used, as will be appreciated by the skilled artisan.

CC(C)C[C@H](NC(=O)OCc1ccccc1)C(=O)O
mTORC1 stimulatory activity of derivative compared with the corresponding native amino acid (mTORC1 [1]): retains the ability to signal to mTORC1, albeit with lower potency than native Leu

NC(=O)c1ncn([C@@H]2O[C@H](CO)[C@@H](O)[C@H]2O)c1N [AICAR, aminoimidazole carboxamide ribonucleotide]
mTORC1 activity in RagA^+/+ and RagA^GTP/GTP MEFs (mTORC1 [2]): inhibited mTORC1 in cells of all genotypes

C[C@H](N)C(=O)O [alanine]
glycaemia of fasted neonates after injection (RagA^GTP/GTP neonates; all neonates regardless of genotype): provoked a significant increase in glycaemia

NC(=O)NCCC[C@H](N)C(=O)O [citrulline, L-Citrulline]
circulating citrulline converted to arginine by the kidneys ([3]; Bahri S. et al. 2013): over 80%
conversion of citrulline to arginine [4]: little to no conversion of citrulline to arginine
mTORC1 activation at the level of muscle, as substitute for arginine (mTORC1 [5]): adequate substitute for arginine for mTORC1 activation at the level of muscle
mTORC1 activation in liver, as substitute for arginine (mTORC1 [5]): less potent at activating mTORC1 in liver

CCOC(=O)[C@@H](N)CC(C)C [leucine ethyl ester, L-leucine ethyl ester]
relative gastrocnemius muscle mass compared to control (PBS injected mice) [6]: the only treatment that led to a significant increase in gastrocnemius muscle mass was LR ethyl ester treatment
mTORC1 stimulatory activity of derivative compared with the corresponding native amino acid (mTORC1 [1]): modestly more stimulatory than the corresponding native amino acid

COC(=O)[C@@H](N)CC(C)C [leucine methyl ester]
mTORC1 stimulatory activity of derivative compared with the corresponding native amino acid (mTORC1 [1]): modestly more stimulatory than the corresponding native amino acid

CC(C)C[C@H](N)C(=O)O [leucine, L-leucine]
mTORC1 activity (phosphorylated S6 and 4EBP1) in non-immobilized (R) gastrocnemius (mTORC1 [7]): stimulated mTORC1 in the non-immobilized muscle in all mice
mTORC1 activity (phosphorylated S6 and 4EBP1) in immobilized (L*) gastrocnemius compared to fasted controls (mTORC1 [7]; 5 days immobilization, LRK = 1× (L-Leucine, L-Arginine) plus 0.1× L-Lysine): unable to increase mTORC1 activity in the immobilized (L*) gastrocnemius muscle in four of the 5 mice
muscle protein synthesis (MPS) rate in gastrocnemius (muscle protein synthesis): little difference between fasted rats and rats given leucine alone

CCOC(=O)[C@@H](N)CCCCN [lysine ethyl ester]
mTORC1 stimulatory activity of derivative compared with the corresponding native amino acid (mTORC1 [1]): modestly more stimulatory than the corresponding native amino acid

COC(=O)[C@@H](N)CCCCN [lysine methyl ester]
mTORC1 stimulatory activity of derivative compared with the corresponding native amino acid (mTORC1 [1]): modestly more stimulatory than the corresponding native amino acid

NCCCC[C@H](N)C(=O)O [lysine, L-lysine]
bioavailability of orally ingested amino acid ([3]; Fry C S et al. 2011): superior to leucine and arginine

CC1(C[C@H](N)C(=O)O)N=N1 [photoLeu]
mTORC1 stimulatory activity of derivative compared with the corresponding native amino acid (mTORC1 [1]): retains some mTORC1 stimulatory activity
suppression of pS6K signal caused by baseline LRK (antagonist test) (mTORC1 [8]; LRK + 0.1× to 10× analog (relative to RPMI)): not an antagonist or mTORC1-inactivating competitor against native Leu
pS6K signal when analog substitutes for native Leu (agonist test) (mTORC1 [8]; RK + 0.1× to 10× analog (relative to RPMI)): pS6K signal increases

CO[C@H]1C[C@@H]2CC[C@@H](C)[C@@](O)(O2)C(=O)C(=O)N2CCCC[C@H]2C(=O)O[C@H]([C@H](C)C[C@@H]2CC[C@@H](O)[C@H](OC)C2)CC(=O)[C@H](C)/C=C(\C)[C@@H](O)[C@@H](OC)C(=O)[C@H](C)C[C@H](C)/C=C/C=C/C=C/1C [rapamycin]
time to death of fasted RagA^GTP/GTP neonates (RagA^GTP/GTP neonates; treated at birth, untreated ˜14 h, p<0.01): ~21 h
